Earlier results in article PMC3848336, “Aurora Isoform Selectivity: Design and Synthesis of Imidazo[4,5-b]pyridine Derivatives as Highly Selective Inhibitors of Aurora-A Kinase in Cells” (Journal of Medicinal Chemistry, 2013).

System: Aurora-A/N-Myc complex
Parameters: method as in PMID 23792191
Details: cited from earlier work

SMILES	disruption of the Aurora-A/N-Myc complex
O=C(O)c1ccc(Nc2ncc3c(n2)-c2ccc(Cl)cc2C(c2c(F)cccc2F)=NC3)cc1 [MLN8054]	disrupt the Aurora-A/N-Myc complex
O=C(O)[C@]1(Cc2cccc(Nc3nccs3)n2)CC[C@@H](Oc2cccc(Cl)c2F)CC1 [MK-5108]	not disrupted
COc1cc(Nc2ncc3c(n2)-c2ccc(Cl)cc2C(c2c(F)cccc2OC)=NC3)ccc1C(=O)O [MLN8237]	disrupt the Aurora-A/N-Myc complex
